Results reported in US9732119B2, “Immunomodulators” (BRISTOL-MYERS SQUIBB COMPANY, priority 2014, dated 2017).
Positions of bridges follow the written chain, without caps; N, C: chain ends. Non-standard residues stand in square brackets, D forms with d. Residues, ends and D or L forms follow the SMILES beside them. Trp(1-CH2COOH) = N[C@@H](Cc1cn(CC(=O)O)c2ccccc12)C(=O)O; Phe(4-Cl) = N[C@@H](Cc1ccc(Cl)cc1)C(=O)O; Phe(4-F) = N[C@@H](Cc1ccc(F)cc1)C(=O)O; Phe(4-Me) = Cc1ccc(C[C@H](N)C(=O)O)cc1; Hyp = O=C(O)[C@@H]1C[C@@H](O)CN1; Aad = N[C@@H](CCCC(=O)O)C(=O)O; NMeNle = CCCC[C@H](NC)C(=O)O; Pip = O=C(O)[C@@H]1CCCCN1; Orn = NCCC[C@H](N)C(=O)O; Dab = NCC[C@H](N)C(=O)O; Dap = NC[C@H](N)C(=O)O; Ava = NCCCCC(=O)O

Biological target: T1, PD-1-Ig binding to PD-L1-TVMV-His (PD-L1-His) (Homo sapiens, UniProt Q9NZQ7)
T1 construct: hPDL1(19-239)-TVMV-His; made in house; host or cells: HEK293T cells
Assay: PD-1/PD-L1 Homogenous Time-Resolved Fluorescence (HTRF) binding assay
Settings: PD-1-Ig (20 nM) / PD-L1-His (10 nM); numeric values
Outline: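 HTRF competition: compound pre-incubated 15 min with PD-L1-His (10 nM final), then PD-1-Ig (20 nM final) added for 15 min in dPBS, 0.1% BSA, 0.05% Tween-20. Detection with Eu-cryptate anti-Ig (1 nM) and APC anti-His (20 nM) antibodies.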

T1 sequence (Q9NZQ7 with tags, fused parts or gaps): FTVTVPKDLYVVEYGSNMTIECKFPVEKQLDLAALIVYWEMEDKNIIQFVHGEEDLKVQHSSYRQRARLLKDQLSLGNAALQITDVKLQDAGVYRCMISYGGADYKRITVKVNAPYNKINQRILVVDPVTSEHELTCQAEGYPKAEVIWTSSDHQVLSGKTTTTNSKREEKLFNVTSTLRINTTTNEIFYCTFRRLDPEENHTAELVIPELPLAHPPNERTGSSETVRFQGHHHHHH

Question: How did the IC50 turn out when C=C(C)C[C@@H]1NC(=O)[C@H](C)N(C)C(=O)[C@H](Cc2ccccc2)NC(=O)CNC[C@@H](C(=O)NCC(N)=O)NC(=O)[C@H](CC(C)C)NC(=O)[C@H](CCCC)N(C)C(=O)[C@H](CCCC)N(C)C(=O)[C@H](Cc2c[nH]c3ccccc23)NC(=O)[C@H](CC(C)C)NC(=O)[C@H](Cc2c[nH]c3ccccc23)NC(=O)[C@@H]2CCCN2C(=O)[C@H](CC(C)C)NC(=O)[C@H](CC(C)C)NC(=O)[C@@H]2CCCN2C1=O [Example 10005] was run?
Answer: 10000 nM

Same assay, conditions: PD-1-Ig (20 nM) / PD-L1-His (10 nM); range classes

Question: With CCCC[C@H]1C(=O)N(C)[C@@H](CCCC)C(=O)N[C@@H](CC(C)C)C(=O)N[C@H](C(N)=O)CNCC(=O)N[C@@H](Cc2ccc(F)cc2)C(=O)N2CCCC[C@H]2C(=O)N[C@@H](CC(N)=O)C(=O)N2CCC[C@H]2C(=O)N[C@@H](CCC(N)=O)C(=O)N[C@@H](CCC(=O)O)C(=O)N2C[C@H](O)C[C@H]2C(=O)N[C@@H](Cc2c[nH]c3ccccc23)C(=O)N[C@@H](CC(N)=O)C(=O)N[C@@H](Cc2cn(CC(=O)O)c3ccccc23)C(=O)N1C [Example 9032] as the compound, how does the IC50 read?
Answer: 1 to 9.9 nM

Question: CCCC[C@H]1C(=O)N(C)[C@@H](CCCC)C(=O)N[C@@H](CC(C)C)C(=O)N[C@H](C(=O)NCC(N)=O)CNCC(=O)N[C@@H](Cc2ccc(OC)cc2)C(=O)N(C)[C@@H](C)C(=O)N[C@@H](CC(N)=O)C(=O)N2CCC[C@H]2C(=O)N[C@@H](CN)C(=O)N[C@@H](CCC(=O)O)C(=O)N2C[C@H](O)C[C@H]2C(=O)N[C@@H](Cc2c[nH]c3ccccc23)C(=O)N[C@@H](CCN)C(=O)N[C@@H](Cc2cn(CC(=O)O)c3ccccc23)C(=O)N1C [Example 1041] was tested. Which IC50 did it give?
Answer: 1 to 9.9 nM

Question: For CCCC[C@H]1C(=O)N(C)[C@@H](CCCC)C(=O)N[C@@H](CC(C)C)C(=O)N[C@H](C(=O)NCC(N)=O)CNCC(=O)N[C@@H](Cc2ccc(O)cc2)C(=O)N(C)[C@@H](C)C(=O)N[C@@H](CC(N)=O)C(=O)N2CCC[C@H]2C(=O)N[C@@H](Cc2cnc[nH]2)C(=O)N[C@@H](CCC(N)=O)C(=O)N2C[C@H](O)C[C@H]2C(=O)N[C@@H](Cc2c[nH]c3ccccc23)C(=O)NCC(=O)N[C@@H](Cc2cn(CC(=O)O)c3ccccc23)C(=O)N1C [Example 10020], which IC50 is on record?
Answer: 10 to 99 nM

Question: How did the IC50 turn out when CCCC[C@H]1C(=O)N(C)[C@@H](CCCC)C(=O)N[C@@H](CC(C)C)C(=O)N[C@H](C(N)=O)CNCC(=O)N[C@@H](Cc2ccc(O)cc2)C(=O)N2CCCC[C@H]2C(=O)N[C@@H](CC(N)=O)C(=O)N2CCC[C@H]2C(=O)N[C@@H](CN)C(=O)N[C@@H](CC(C)C)C(=O)N2C[C@H](O)C[C@H]2C(=O)N[C@@H](Cc2c[nH]c3ccccc23)C(=O)N[C@@H](CCN)C(=O)N[C@@H](Cc2cn(CC(=O)O)c3ccccc23)C(=O)N1C [Example 1038] was run?
Answer: 1 to 9.9 nM

Question: For CCCC[C@H]1C(=O)N(C)[C@@H](CCCC)C(=O)N[C@@H](CCC(=O)O)C(=O)N[C@H](C(N)=O)CNCC(=O)N[C@@H](Cc2ccc(O)cc2)C(=O)N2CCCC[C@H]2C(=O)N[C@@H](CC(N)=O)C(=O)N2CCC[C@H]2C(=O)N[C@@H](Cc2c[nH]cn2)C(=O)N[C@@H](CC(=O)O)C(=O)N2C[C@H](O)C[C@H]2C(=O)N[C@@H](Cc2c[nH]c3ccccc23)C(=O)N[C@@H](C)C(=O)N[C@@H](Cc2cn(CC(=O)O)c3ccccc23)C(=O)N1C [Example 9054], which IC50 is on record?
Answer: 1 to 9.9 nM

Question: For CCCC[C@H]1C(=O)N(C)[C@@H](CCCC)C(=O)NC(CC(C)C)C(=O)N[C@H](C(N)=O)CNCC(=O)N[C@@H](Cc2ccc(O)cc2)C(=O)N(C)[C@@H](C)C(=O)N[C@@H](CC(N)=O)C(=O)N2CCC[C@H]2C(=O)N[C@@H](CN)C(=O)N[C@@H](CC(C)C)C(=O)N2C[C@H](O)C[C@H]2C(=O)N[C@@H](Cc2c[nH]c3ccccc23)C(=O)N[C@@H](CCN)C(=O)N[C@@H](Cc2cn(CC(=O)O)c3ccccc23)C(=O)N1C (some centres unmarked) [Example 1034], which IC50 is on record?
Answer: 1 to 9.9 nM

Question: How did the IC50 turn out when CCCC[C@H]1C(=O)N(C)[C@@H](CCCC)C(=O)N[C@@H](CC(C)C)C(=O)N[C@H](C(=O)NCC(N)=O)CCNCC(=O)N[C@@H](Cc2ccc(O)cc2)C(=O)N(C)[C@@H](C)C(=O)N[C@@H](CC(N)=O)C(=O)N2CCC[C@H]2C(=O)N[C@@H](Cc2cnc[nH]2)C(=O)N[C@@H](CCC(N)=O)C(=O)N2C[C@H](O)C[C@H]2C(=O)N[C@@H](Cc2c[nH]c3ccccc23)C(=O)NCC(=O)N[C@@H](Cc2c[nH]c3ccccc23)C(=O)N1C [Example 10018] was run?
Answer: 10 to 99 nM

Question: For CCCC[C@H]1C(=O)N(C)[C@@H](CCCC)C(=O)N[C@@H](CCC(=O)O)C(=O)N[C@H](C(N)=O)CCCC(=O)N[C@@H](Cc2ccc(C)cc2)C(=O)N2CCCC[C@H]2C(=O)N[C@@H](CC(N)=O)C(=O)N2CCC[C@H]2C(=O)N[C@@H](CN)C(=O)N[C@@H](CC(C)C)C(=O)N2C[C@H](O)C[C@H]2C(=O)N[C@@H](Cc2c[nH]c3ccccc23)C(=O)N[C@@H](CCN)C(=O)N[C@@H](Cc2cn(CC(=O)O)c3ccccc23)C(=O)N1C [Example 10562] ([Phe(4-Me)][Pip]NP[Dap]L[Hyp]W[Dab][Trp(1-CH2COOH)][NMeNle][NMeNle]E[Aad]-NH2; lactam N-14), which IC50 is on record?
Answer: 10 to 99 nM

Question: How did the IC50 turn out when CCCC[C@H]1C(=O)N(C)[C@@H](CCCC)C(=O)N[C@@H](CC(C)C)C(=O)N[C@H](C(N)=O)CCCC(=O)N[C@@H](Cc2ccc(OC)cc2)C(=O)N2CCCC[C@H]2C(=O)N[C@@H](CC(=O)O)C(=O)N2CCC[C@H]2C(=O)N[C@@H](CN)C(=O)N[C@@H](CC(C)C)C(=O)N2C[C@H](O)C[C@H]2C(=O)N[C@@H](Cc2c[nH]c3ccccc23)C(=O)N[C@@H](CCN)C(=O)N[C@@H](Cc2cn(CC(=O)O)c3ccccc23)C(=O)N1C [Example 10554] (Y(Me)[Pip]DP[Dap]L[Hyp]W[Dab][Trp(1-CH2COOH)][NMeNle][NMeNle]L[Aad]-NH2; lactam N-14) was run?
Answer: 1 to 9.9 nM

Question: How did the IC50 turn out when CCCC[C@H]1C(=O)N(C)[C@@H](CCCC)C(=O)N[C@@H](CC(C)C)C(=O)N[C@H](C(N)=O)COCC(=O)N[C@@H](Cc2ccc(OC)cc2)C(=O)N2CCCC[C@H]2C(=O)N[C@@H](CC(N)=O)C(=O)N2CCC[C@H]2C(=O)N[C@@H](CN)C(=O)N[C@@H](CC(C)C)C(=O)N2C[C@H](O)C[C@H]2C(=O)N[C@@H](Cc2c[nH]c3ccccc23)C(=O)N[C@@H](CCN)C(=O)N[C@@H](Cc2cn(CC(=O)O)c3ccccc23)C(=O)N1C [Example 10528] was run?
Answer: 10 to 99 nM

Question: Which IC50 does the source give for CCCC[C@H]1C(=O)N(C)[C@@H](CCCC)C(=O)N[C@@H](CC(C)C)C(=O)NCCCCC(=O)N[C@@H](Cc2ccc(Cl)cc2)C(=O)N2CCCC[C@H]2C(=O)N[C@@H](CC(N)=O)C(=O)N2CCC[C@H]2C(=O)N[C@@H](CN)C(=O)N[C@@H](CC(C)C)C(=O)N2C[C@H](O)C[C@H]2C(=O)N[C@@H](Cc2c[nH]c3ccccc23)C(=O)N[C@@H](CCN)C(=O)N[C@@H](Cc2cn(CC(=O)O)c3ccccc23)C(=O)N1C [Example 10537] (cyclo([Ava][Phe(4-Cl)][Pip]NP[Dap]L[Hyp]W[Dab][Trp(1-CH2COOH)][NMeNle][NMeNle]L)) here?
Answer: 10 to 99 nM

Question: How did the IC50 turn out when CCCC[C@H]1C(=O)N(C)[C@@H](CCCC)C(=O)N[C@@H](CC(C)C)C(=O)N[C@H](C(N)=O)CCCC(=O)N[C@@H](Cc2ccc(F)cc2)C(=O)N2CCCC[C@H]2C(=O)N[C@@H](CC(N)=O)C(=O)N2CCC[C@H]2C(=O)N[C@@H](CN)C(=O)N[C@@H](CC(C)C)C(=O)N2C[C@H](O)C[C@H]2C(=O)N[C@@H](Cc2c[nH]c3ccccc23)C(=O)N[C@@H](CCN)C(=O)N[C@@H](Cc2cn(CC(=O)O)c3ccccc23)C(=O)N1C [Example 10526] ([Phe(4-F)][Pip]NP[Dap]L[Hyp]W[Dab][Trp(1-CH2COOH)][NMeNle][NMeNle]L[Aad]-NH2; lactam N-14) was run?
Answer: 10 to 99 nM

Question: CCCC[C@H]1C(=O)N(C)[C@@H](CCCC)C(=O)N[C@@H](CCC(=O)O)C(=O)N[C@H](C(N)=O)CNCC(=O)N[C@@H](Cc2ccc(F)cc2)C(=O)N2CCCC[C@H]2C(=O)N[C@@H](CC(N)=O)C(=O)N2CCC[C@H]2C(=O)N[C@@H](Cc2c[nH]cn2)C(=O)N[C@@H](CC(=O)O)C(=O)N2C[C@H](O)C[C@H]2C(=O)N[C@@H](Cc2c[nH]c3ccccc23)C(=O)N[C@@H](C)C(=O)N[C@@H](Cc2cn(CC(=O)O)c3ccccc23)C(=O)N1C [Example 9057] was tested. Which IC50 did it give?
Answer: 1 to 9.9 nM

Question: CCCC[C@H]1C(=O)N(C)[C@@H](CCCC)C(=O)N[C@@H](CC(C)C)C(=O)N[C@H](C(N)=O)CNCC(=O)N[C@@H](Cc2ccc(O)cc2)C(=O)N2CCCC[C@H]2C(=O)N[C@@H](CC(N)=O)C(=O)N2CCC[C@H]2C(=O)N[C@@H](Cc2c[nH]cn2)C(=O)N[C@@H](CC(=O)O)C(=O)N2C[C@H](O)C[C@H]2C(=O)N[C@@H](Cc2c[nH]c3ccccc23)C(=O)N[C@@H](C)C(=O)N[C@@H](Cc2cn(CC(=O)O)c3ccccc23)C(=O)N1C [Example 9049] was tested. Which IC50 did it give?
Answer: 1 to 9.9 nM

Question: Which IC50 does the source give for CCCC[C@H]1C(=O)N(C)[C@@H](CCCC)C(=O)N[C@@H](CC(C)C)C(=O)NCCC[C@H](N)C(=O)N[C@@H](Cc2ccc(C)cc2)C(=O)N2CCCC[C@H]2C(=O)N[C@@H](CC(N)=O)C(=O)N2CCC[C@H]2C(=O)N[C@@H](CN)C(=O)N[C@@H](CCC(=O)O)C(=O)N2C[C@H](O)C[C@H]2C(=O)N[C@@H](Cc2c[nH]c3ccccc23)C(=O)N[C@@H](CCN)C(=O)N[C@@H](Cc2cn(CC(=O)O)c3ccccc23)C(=O)N1C [Example 10547] (H-[Orn][Phe(4-Me)][Pip]NP[Dap]E[Hyp]W[Dab][Trp(1-CH2COOH)][NMeNle][NMeNle]L; lactam 1-C) here?
Answer: 10 to 99 nM

Question: For CCCC[C@H]1C(=O)N(C)[C@@H](CCCC)C(=O)N[C@@H](CC(C)C)C(=O)NCCCCC(=O)N[C@@H](Cc2ccc(F)cc2)C(=O)N2CCCC[C@H]2C(=O)N[C@@H](CC(N)=O)C(=O)N2CCC[C@H]2C(=O)N[C@@H](CN)C(=O)N[C@@H](CCC(=O)O)C(=O)N2C[C@H](O)C[C@H]2C(=O)N[C@@H](Cc2c[nH]c3ccccc23)C(=O)N[C@@H](CCN)C(=O)N[C@@H](Cc2cn(CC(=O)O)c3ccccc23)C(=O)N1C [Example 10543] (cyclo([Ava][Phe(4-F)][Pip]NP[Dap]E[Hyp]W[Dab][Trp(1-CH2COOH)][NMeNle][NMeNle]L)), which IC50 is on record?
Answer: 1 to 9.9 nM
